# Tested on: MDCK-WT, MDCK-CYP3A4 and MDCK-MDR1-CYP3A4 cells
# Experiment: Mannitol
# Assay type: in vitro ADME, dog
# Conditions: paracellular marker; data not shown
structure (smiles),measurement,value
OC[C@@H](O)[C@@H](O)[C@H](O)[C@H](O)CO [mannitol],"Mannitol transport in MDCK-WT, MDCK-CYP3A4 and MDCK-MDR1-CYP3A4 cells",No significant difference
